Test results as given in patent publication EP1087941B9, “THIOLESTERS AND USES THEREOF” (THE UNITED STATES OF AMERICA, as represented by THE …, priority 1998, dated 1999).
Read-outs that look alike come from different tables or passages of the source.

Key:
[1] = molecular target: T1, recombinant HIV-1 NCp7 protein (Human immunodeficiency virus type 1 group M subtype B, UniProt P03347); test: Trp37 zinc finger fluorescence (zinc ejection) assay; assay type: biochemical; design: Zinc Finger Reactivity, percent total decrease in flourescence / Zinc Finger Reactivity % Decrease: concentration or dose not given beside the values; settings: for zinc finger reactivity in the presence of glutathione: 2 molar excess of glutathione; for Zinc Finger Reactivity, decrease in relative fluorescence units per 30 min. / Zinc Finger Reactivity, percent total decrease in flourescence: Table 7; for Zinc Finger Reactivity, percent total decrease in flourescence: value in parenthesis; for percent decrease in total Trp37 fluorescence (zinc ejection) at 2000 µM: 30 min incubation, read-out: Zinc Finger Reactivity % Decrease; for Zinc Finger Reactivity % Decrease: total percent decrease during a 30 min incubation; for zinc finger reactivity: result in words
T1 construct: within the nucleocapsid p7 (NCp7) protein portion of the polyprotein
Procedure: Zinc finger reactivity was measured using a Zn specific fluorochrome, TSQ, N-(6-methoxy-8-quinolyl) -p-toluenesulfonamide, assay or a Trp37 zinc finger fluorescence assay. Fluorescent measurements of the Trp37 residue in the C-terminal finger of recombinant HIV-1 NCp7 protein were performed as described by Rice (1995) Science 270:1194-1197; Rice (1997) Antimicrob. Agents Chemother. 41:419-426. Measurement of Zn ejection from both fingers was measured using the Zn-selective fluorchrome probe TSQ (Molecular Probes, Eugene OR) as described by Rice (1996) J. Med. Chem 39:3606-3616. Measurement of the ability of NCp7 to bind to a DNA oligomer, a 44 mer: […] (SEQ ID NO:1), analogous to the HIV-1 RNA packaging site was carried out as described by Huang (1998) J. Med. Chem. 41:1371-1381, see also, Rossio (1998) HIV Pathogenesis and Treatment: Keystone Symposium on Molecular and Cellular Biology, Abstract # 4082. Briefly, 50 nM NCp7 was treated with test compounds for 1 hour at RT in […] buffer containing 10% glycerol and 50 mM Tris-HCl (pH 7.5). Labeled oligomer (0.1 picomole, end labeled [^32P]) was added in an equal volume of buffer containing 10% glycerol, 50 mM Tris-HCl (pH 7.5), 400 mM KCl and 40 mM MgCl2. The reaction was continued for 15 min at room temperature, and a total of […] (or 1/4 of the total reaction volume) was separated on nondenaturing 4.5% polyacrylamide gels in 0.5X Tris-Borate electrophoresis buffer. NCp7-oligomer complexes were visualized by autoradiography.
Changes in the intrinsic fluorescence of aromatic protein moieties are commonly used to monitor a reaction which involves a change in protein conformation. In the present invention, fluorescence can be used to monitor the loss of metal ion from a zinc finger, e.g., the loss of zinc from a CCHC retroviral zinc finger protein, after contact with a thiolester of the invention. The intrinsic fluorescence of Trp 37 in the second zinc finger of HIV-1 NC protein has been used to monitor nucleic acid binding and conformation of the zinc finger complex (see, Summers (1992) supra).
Zinc ejection is measured by the ability of compounds to chemically attack the cysteines in purified NCp7 protein resulting in a loss of fluorescence due to the movement of the tryptophan 37 residue from an exposed to an internal position on the protein. Zinc ejection is measured and expressed as either percent decrease in total fluorescence or decrease in relative fluorescence units per min during a 30 min assay (RFU/min). A thiolester is considered within the scope of the invention if any amount of zinc ejection is detected. For example, compound 50 has a zinc ejection rate of 0.86 RFU/min.

[2] = system: HIV-1RF; test: XTT cytoprotection assay (antiviral activity); assay type: cell-based
Source text: One exemplary means to determine antiviral activity is with CEM-SS cells and virus (e.g., HIV-1RF) (MOI = 0.01) using the XTT (2,3-bis[2-methoxy- 4-nitro-5-sulfophenyl] -5- [(phenylamino)carbonyl]-2H-tetrazolium hydroxide) cytoprotection assay, as described by Rice (1993) PNAS 90:9721-9724, and Rice (1997) Antimicrob. Agents Chemother. 41:419-426. Briefly, cells are infected with HIV-1RF (or other virus to be tested) in the presence of various dilutions of test compounds (thiolesters and controls). The cultures are incubated for seven days. During this time control cultures without protective compounds (i.e., compounds with anti-viral activity) replicate virus, induce syncytia, and result in about 90% cell death. The cell death is measured by XTT dye reduction. XTT is a soluble tetrazolimn dye that measures mitochondrial energy output, similar to MTT. Positive controls using dextran sulfate (an attachment inhibitor) or 3'-Azido -2'-3'-dideoxythymidine, AZT (a reverse transcriptase inhibitor) are added to each assay. Individual assays are done in duplicate using a sister plate method.
Effective antiviral concentrations providing 50% cytoprotection (EC50), and cellular growth inhibitory concentrations causing 50% cytotoxicity (IC50) are calculated.

[3] = Table 5, average decrease in relative fluorescence units over 30 min
[4] = Table 6, average decrease in relative fluorescence units over 30 min
[5] = Table 8, GSH +: compounds (2 mM) treated 2 h at 37°C with 4 mM reduced glutathione
[6] = Human immunodeficiency virus 1, Table 5, XTT cytoprotection assay, read-out: Antiviral Activity EC50
[7] = Human immunodeficiency virus 1, Table 6, XTT cytoprotection assay, read-out: Antiviral Activity EC50%

SMILES | zinc finger reactivity / zinc ejection rate [1] [RFU/min] | zinc finger reactivity in the presence of glutathione [1] | Zinc Finger Reactivity RFU/ min [1, 3] [RFU/ min] | Zinc Finger Reactivity RFU/ min [1, 4] [RFU/ min] | Zinc Finger Reactivity, decrease in relative fluorescence units per 30 min. [1] [RFU/30 MIN] | Zinc Finger Reactivity, percent total decrease in flourescence [1] [%] | Zinc Finger Reactivity RFU/ min [1, 5] [RFU/min] | percent decrease in total Trp37 fluorescence (zinc ejection) at 2000 µM [1, 5] [%] | Zinc Finger Reactivity RFU/ min ([1]; Table 8, GSH -) [RFU/min] | Zinc Finger Reactivity % Decrease ([1]; Table 8, GSH -) [%] | Zinc Finger Reactivity RFU/ min ([1]; Table 10, average decrease in relative fluorescence units over 30 min) [RFU/ min] | zinc finger reactivity [1] | EC50 ([2]; Human immunodeficiency virus 1, read-out: EC50 (concentration inhibiting 50% virus replication)) [µM] | EC50 [2, 6] [µM] | EC50 [2, 7] [µM] | EC50 ([2]; Human immunodeficiency virus 1, read-out: Antiviral Activity EC50%) [µM]
CC(=O)NS(=O)(=O)c1ccc(NC(=O)c2ccccc2SC(=O)CCCC[n+]2ccccc2)cc1 [Compound 45, N-[2-(5-pyridinio-valeroylthio)benzoyl]sulfacetamide bromide] | 3.6 | maintained the capacity to attack the cysteine thiols | 3.6 | 3.6 | 3.6 | 34.7 | 3.8 | 36.9 | 2.6 | 28.2 | 3.6 | promoted metal ion (zinc) ejection | < 10 | 6.2 | 6.2 | –
CC(=O)NS(=O)(=O)c1ccc(NC(=O)c2ccccc2SC(=O)CCCCBr)cc1 [Compound 44, N-[2-(5-bromovaleroylthio)benzoyl]sulfacetamide] | – | maintained the capacity to attack the cysteine thiols | 1.8 | 1.8 | 1.8 | 13.3 | 2.4 | 28 | 6.5 | 60.1 | – | promoted metal ion (zinc) ejection | – | 3.8 | 38 | –
O=C(CCCC[n+]1ccccc1)Sc1ccccc1C(=O)Nc1ccc(S(=O)(=O)c2ccc([N+](=O)[O-])cc2)cc1 [Compound 47] | – | maintained the capacity to attack the cysteine thiols | – | 4.1 | 4.1 | 17.9 | 1.6 | 21.1 | 1.6 | 24.3 | – | promoted metal ion (zinc) ejection | – | – | – | 5.5
